System: κ opioid receptors
Assay: not given
Conditions: background, U.S. Pat. No. 6,784,187; cited from earlier work

Row | Compound | affinity for κ opioid receptors
1 | C[C@H]1C2Cc3ccc(C(N)=O)cc3[C@@]1(C)CCN2CC1CC1 [Example 8-CAC, 8-carboxamidocyclazocine] | high affinity

System: guinea pig μ receptors
Assay: not given
Conditions: background, U.S. Pat. No. 6,784,187; cited from earlier work

Row | Compound | affinity for μ opioid receptors
2 | C[C@H]1C2Cc3ccc(C(N)=O)cc3[C@@]1(C)CCN2CC1CC1 [Example 8-CAC, 8-carboxamidocyclazocine] | high affinity

System: mice
Assay: not given
Conditions: 1 mg/kg ip in mice; cited from earlier work

Row | Compound | duration of action
3 | C[C@H]1C2Cc3ccc(C(N)=O)cc3[C@@]1(C)CCN2CC1CC1 [Example 8-CAC, 8-carboxamidocyclazocine] | 15 h
4 | C[C@H]1[C@H]2Cc3ccc(O)cc3[C@]1(C)CCN2CC1CC1 [cyclazocine] | 2 h

Same assay, conditions: background; cited from earlier work

Row | Compound | antinociception activity in vivo
5 | C[C@H]1C2Cc3ccc(C(N)=O)cc3[C@@]1(C)CCN2CC1CC1 [Example 8-CAC, 8-carboxamidocyclazocine] | high antinociception activity

Molecular target: T1, human μ opioid receptor (Homo sapiens, UniProt P35372)
T1 construct: expressed in transfected cells
Assay: biochemical
Type: binding
Conditions: [3H]DAMGO (μ)

T1 sequence (P35372 whole entry): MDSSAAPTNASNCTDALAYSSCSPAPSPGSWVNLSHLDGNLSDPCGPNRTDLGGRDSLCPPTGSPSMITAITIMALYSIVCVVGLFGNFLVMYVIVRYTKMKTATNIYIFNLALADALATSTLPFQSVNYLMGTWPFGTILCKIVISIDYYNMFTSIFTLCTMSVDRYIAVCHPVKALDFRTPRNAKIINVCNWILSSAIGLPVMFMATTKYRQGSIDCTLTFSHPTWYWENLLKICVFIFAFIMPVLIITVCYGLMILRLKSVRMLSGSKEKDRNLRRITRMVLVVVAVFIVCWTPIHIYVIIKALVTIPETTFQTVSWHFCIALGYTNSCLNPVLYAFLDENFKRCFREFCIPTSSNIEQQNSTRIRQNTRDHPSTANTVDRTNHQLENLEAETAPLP

Row | Compound | Ki
6 | CC[C@@]12CCN(CC3CC3)C(C(=O)c3ccc(C(=O)NCCc4ccc(-c5ccccc5)cc4)cc31)[C@@H]2C (mixture of isomers) [Example 21, (±)-3-(Cyclopropylmethyl)-6-ethyl-1,2,3,4,5,6-hexaahydro-cis-11-methyl-N-(2-[1,1′-biphenyl]-4-ylethyl)-1-oxo-2,6-methano-3-benzazocine-8-carboxamide] | 4.9 ± 0.2 nM
7 | CC1C2Cc3ccc(C(=O)NCCCCCc4ccccc4)cc3C1(C)CCN2CC1CC1 (racemic) [Example 61] | 1.7 ± 0.15 nM
8 | CC1C2Cc3ccc(C(=O)NCCc4cccnc4)cc3C1(C)CCN2CC1CC1 (racemic) [Example 69] | 120 ± 3.6 nM
9 | CC(NC(=O)c1ccc2c(c1)C1(C)CCN(CC3CC3)C(C2)C1C)c1ccccc1 (single isomer, unassigned) [Example 67] | 28 ± 1.4 nM
10 | CC(NC(=O)c1ccc2c(c1)C1(C)CCN(CC3CC3)C(C2)C1C)c1ccccc1 (single isomer, unassigned) [Example 68] | 62 ± 3.3 nM
11 | O=C(NCCc1ccc(-c2ccccc2)cc1)c1ccc2c3c1OC1C(=O)CCC4(O)C(C2)N(CC2CC2)CCC314 (single isomer, unassigned; (-)) [Example 71, (−)-Q-naltrexone] | 1.4 ± 0.12 nM
12 | CC1C2C(=O)c3ccc(C(=O)NCCc4ccc(-c5ccccc5)cc4)cc3C1(C)CCN2CC1CC1 (stereo not drawn) [Example 20] | 3.1 ± 1.3 nM
13 | CC(CNC(=O)c1ccc2c(c1)[C@@]1(C)CCN(CC3CC3)C(C2)[C@@H]1C)c1ccc(-c2ccccc2)cc1 (stereo partly drawn) [Example 46] | 18 ± 1.1 nM
14 | C[C@H]1C2Cc3ccc(C(=O)NCCc4ccc(-c5cccc(Cl)c5)cc4)cc3[C@@]1(C)CCN2CC1CC1 [Example 50] | 0.56 ± 0.087 nM
15 | C[C@H]1C2Cc3ccc(C(=O)NCCc4ccc(C(=O)NCCc5ccc(Br)cc5)cc4)cc3[C@@]1(C)CCN2CC1CC1 [Example 53] | 1.5 ± 0.18 nM
16 | C[C@H]1C2Cc3ccc(C(=O)NCCCCc4ccccc4)cc3[C@@]1(C)CCN2CC1CC1 [Example 60] | 4.3 ± 0.42 nM
17 | O=C(NCCc1ccc(-c2ccccc2)cc1)c1ccc2c(c1)[C@@]13CCCC[C@@]1(O)[C@@H](C2)N(CC1CCC1)CC3 [Example 79, (−)-Q-butorphanol] | 0.32 ± 0.048 nM
18 | O=C1CC[C@@]2(O)[C@H]3Cc4ccc(C(=O)NCCc5ccc(-c6ccccc6)cc5)c(O)c4[C@@]2(CCN3CC2CC2)C1 [Example 81, Q-naltrexone ring opened] | 0.71 ± 0.091 nM

Same assay, conditions: read-out: [3H]DAMGO (μ)

Row | Compound | Ki
19 | CC1[C@@H]2Cc3ccc(C(=O)NCCc4ccccc4)cc3[C@@]1(C)CCN2CC1CC1 (mixture of isomers) [Example 11, (±)-3-(Cyclopropylmethyl)-1,2,3,4,5,6-hexahydro-cis-6,11-dimethyl-N-(2-phenylethyl)-2,6-methano-3-benzazocine-8-carboxamide] | 3.5 ± 0.27 nM
20 | CC1[C@@H]2Cc3ccc(C(=O)NCCCc4ccccc4)cc3[C@@]1(C)CCN2CC1CC1 (mixture of isomers) [Example 12, (±)-3-(Cyclopropylmethyl)-1,2,3,4,5,6-hexahydro-cis-6,11-dimethyl-N-(3-phenylpropyl)-2,6-methano-3-benzazocine-8-carboxamide] | 2.5 ± 0.27 nM
21 | CC1[C@@H]2Cc3ccc(C(=O)NCCc4cccc(-c5ccccc5)c4)cc3[C@@]1(C)CCN2CC1CC1 (mixture of isomers) [Example 25, (±)-3-(Cyclopropylmethyl)-1,2,3,4,5,6-hexahydro-cis-6,11-dimethyl-N-(2-(biphenyl-3-yl)ethyl)-2,6-methano-3-benzazocine-8-carboxamide] | 0.95 ± 0.15 nM
22 | CC1[C@@H]2Cc3ccc(C(=O)NCCc4ccccc4-c4ccccc4)cc3[C@@]1(C)CCN2CC1CC1 (mixture of isomers) [Example 26, (±)-3-(Cyclopropylmethyl)-1,2,3,4,5,6-hexahydro-cis-6,11-dimethyl-N-(2-(biphenyl-2-yl)ethyl)-2,6-methano-3-benzazocine-8-carboxamide] | 6.7 ± 0.49 nM
23 | CC1[C@@H]2Cc3ccc(C(=O)NCCc4ccc(Cc5ccccc5)cc4)cc3[C@@]1(C)CCN2CC1CC1 (mixture of isomers) [Example 27, (±)-3-(Cyclopropylmethyl)-1,2,3,4,5,6-hexahydro-cis-6,11-dimethyl-N-(4-benzylphenethyl)-2,6-methano-3-benzazocine-8-carboxamide] | 0.23 ± 0.032 nM
24 | CC1[C@@H]2Cc3ccc(C(=O)NCCc4ccc(Br)cc4)cc3[C@@]1(C)CCN2CC1CC1 (mixture of isomers) [Example 29, (±)-3-(Cyclopropylmethyl)-1,2,3,4,5,6-hexahydro-cis-6,11-dimethyl-N-(4-bromophenethyl)-2,6-methano-3-benzazocine-8-carboxamide] | 2.4 ± 0.33 nM
25 | CC1[C@@H]2Cc3ccc(C(=O)NCCc4cccc(Br)c4)cc3[C@@]1(C)CCN2CC1CC1 (mixture of isomers) [Example 30, (±)-3-(Cyclopropylmethyl)-1,2,3,4,5,6-hexahydro-cis-6,11-dimethyl-N-(3-bromophenethyl)-2,6-methano-3-benzazocine-8-carboxamide] | 0.35 ± 0.021 nM
26 | CC1[C@@H]2Cc3ccc(C(=O)NCCc4ccc(Oc5ccccc5)cc4)cc3[C@@]1(C)CCN2CC1CC1 (mixture of isomers) [Example 33, (±)-3-(Cyclopropylmethyl)-1,2,3,4,5,6-hexahydro-cis-6,11-dimethyl-N-(4-phenoxyphenethyl)-2,6-methano-3-benzazocine-8-carboxamide] | 0.059 ± 0.017 nM
27 | CC1[C@@H]2Cc3ccc(C(=O)NCCc4cccc(Oc5ccccc5)c4)cc3[C@@]1(C)CCN2CC1CC1 (mixture of isomers) [Example 34, (±)-3-(Cyclopropylmethyl)-1,2,3,4,5,6-hexahydro-cis-6,11-dimethyl-N-(3-phenoxyphenethyl)-2,6-methano-3-benzazocine-8-carboxamide] | 0.54 ± 0.16 nM
28 | CC1[C@@H]2Cc3ccc(C(=O)NCCc4ccccc4Oc4ccccc4)cc3[C@@]1(C)CCN2CC1CC1 (mixture of isomers) [Example 35, (±)-3-(Cyclopropylmethyl)-1,2,3,4,5,6-hexahydro-cis-6,11-dimethyl-N-(2-phenoxyphenethyl)-2,6-methano-3-benzazocine-8-carboxamide] | 0.63 ± 0.09 nM
29 | CC1[C@@H]2Cc3ccc(C(=O)NCCc4ccc5ccccc5c4)cc3[C@@]1(C)CCN2CC1CC1 (mixture of isomers) [Example 37, (±)-3-(Cyclopropylmethyl)-1,2,3,4,5,6-hexahydro-cis-6,11-dimethyl-N-(2-(naphthalen-2-yl)ethyl)-2,6-methano-3-benzazocine-8-carboxamide] | 0.18 ± 0.009 nM
30 | CC1[C@@H]2Cc3ccc(C(=O)NCCCc4ccc5ccccc5c4)cc3[C@@]1(C)CCN2CC1CC1 (mixture of isomers) [Example 38, (±)-3-(Cyclopropylmethyl)-1,2,3,4,5,6-hexahydro-cis-6,11-dimethyl-N-(3-(naphthalen-2-yl)propyl)-2,6-methano-3-benzazocine-8-carboxamide] | 1.9 ± 0.19 nM
31 | CC1[C@@H]2Cc3ccc(C(=O)NCCc4cccc5ccccc45)cc3[C@@]1(C)CCN2CC1CC1 (mixture of isomers) [Example 40, (±)-3-(Cyclopropylmethyl)-1,2,3,4,5,6-hexahydro-cis-6,11-dimethyl-N-(2-(naphthalen-1-yl)ethyl)-2,6-methano-3-benzazocine-8-carboxamide] | 4.2 ± 0.13 nM
32 | CC1[C@@H]2Cc3ccc(C(=O)NCCCc4ccc5ccccc5c4)cc3[C@@]1(C)CCN2CC1CC1 (mixture of isomers) [Example 41, (±)-3-(Cyclopropylmethyl)-1,2,3,4,5,6-hexahydro-cis-6,11-dimethyl-N-(3-(naphthalen-2-yl)propyl)-2,6-methano-3-benzazocine-8-carboxamide] | 2.4 ± 0.45 nM
33 | CC1[C@@H]2Cc3ccc(C(=O)NCCc4ccccc4Br)cc3[C@@]1(C)CCN2CC1CC1 (mixture of isomers) [Example 52, (±)-3-(Cyclopropylmethyl)-1,2,3,4,5,6-hexahydro-cis-6,11-dimethyl-N-(2-bromophenethyl)-2,6-methano-3-benzazocine-8-carboxamide] | 4 ± 0.36 nM
34 | COc1ccc(-c2ccc(CCNC(=O)c3ccc4c(c3)[C@@]3(C)CCN(CC5CC5)C(C4)[C@@H]3C)cc2)cc1 [Example 48] | 0.084 ± 0.012 nM
35 | C[C@H]1C2Cc3ccc(C(=O)NCCc4ccc(-c5ccc(Cl)cc5)cc4)cc3[C@@]1(C)CCN2CC1CC1 [Example 49] | 0.2 ± 0.038 nM
36 | Cc1ccc(-c2ccc(CCNC(=O)c3ccc4c(c3)[C@@]3(C)CCN(CC5CC5)C(C4)[C@@H]3C)cc2)cc1 [Example 51] | 0.29 ± 0.075 nM

Source: US8026252B2 (priority 2005, dated 2011)
